≈ marks a conversion by molar mass, not a printed value.

The assay has as its system Mycobacterium tuberculosis variant bovis. The assay is described as follows: Antimycobacterial activity against Mycobacterium bovis 8 by serial dilution method. It is filed as functional.

As for `NNC(=O)c1ccncc1` [ISONIAZID], the MIC lay in the range of 0.015 to 0.06 µg/mL (≈ 0.109 to 0.438 µM).

For the origin of these results see ChEMBL document CHEMBL4052616, “Isoniazid derivatives and their anti-tubercular activity” (Eur J Med Chem, 2017).
